Reference: patent US9896441B2 (Lycera Corporation, priority 2014, dated 2018)

Key:
RORγ-LBD = biological target: T1, RORγ-LBD (Homo sapiens, UniProt P51449); test: RORγ-Ligand Binding Domain (LBD) TR-FRET Assay; format: biochemical; settings: for TR-FRET Assay Max Response: maximum response;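 for TR-FRET Assay Max Response: 665/615 nm signal ratio set to 100 without ursolic acid or test compound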
T1 construct: made in house; host or cells: SF9 cells (baculovirus); used as diluted lysate
T1 sequence (P51449 269-508 limits assumed): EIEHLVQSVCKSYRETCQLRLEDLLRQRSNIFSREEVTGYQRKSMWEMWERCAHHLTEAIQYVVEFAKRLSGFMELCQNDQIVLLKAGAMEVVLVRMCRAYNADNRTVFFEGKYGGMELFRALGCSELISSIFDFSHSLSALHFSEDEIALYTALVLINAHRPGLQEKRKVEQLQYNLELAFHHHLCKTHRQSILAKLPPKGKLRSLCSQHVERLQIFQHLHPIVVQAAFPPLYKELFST
Summary of the method: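 This TR-FRET coactivator assay pairs baculovirus-expressed His-RORγ-LBD (~3 nM final) with biotin-SRC1 LXXLL peptide at 200 nM final in pH 7.0 Tris/KCl/EDTA/DTT/BSA buffer.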

Gal4-RORγ-LBD = biological target: T2, Gal4-RORγ-LBD (Homo sapiens, UniProt P51449); test: Gal4-RORγ Luciferase Reporter Assay in HEK-293T Cells; format: cell-based; settings: HEK-293 cells; for Gal4-RORγ Assay Max Response: maximum response
T2 construct: expressed in transfected cells
T2 sequence (P51449 269-508 limits assumed): T1 sequence (P51449 269-508 limits assumed)
Summary of the method: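 HEK-293 cells were co-transfected with Gal4-RORγ-LBD and a Gal4-luciferase reporter, then exposed overnight at 37 °C to compounds with […] ursolic acid present (0.2% DMSO). Luminescence was read with One-Glo after 10 min at RT, untreated signal was set as 100, and Max Response was taken as the upper plateau of a 4-parameter logistic fit.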

[1] = luciferase reporter, with ursolic acid
[2] = luciferase reporter, in presence of ursolic acid
[3] = with 2 μM ursolic acid (RORγ antagonist), highest test concentration 10 μM
[4] = ursolic acid present, luciferase readout

| EC50 (RORγ-LBD; RORγ-LBD TR-FRET) [nM] | EC50 (Gal4-RORγ-LBD; [1]) [nM] | SMILES | also measured |
| --- | --- | --- | --- |
| < 500 | < 500 | COC(=O)CC[C@H]1CN(S(=O)(=O)c2cccc(C(F)F)c2)c2cc(/C=C/c3c(Cl)cccc3C(F)(F)F)ccc2O1 [Example 81, Methyl (S,E)-3-(6-(2-chloro-6-(trifluoromethyl)styryl)-4-((3-(difluoromethyl)phenyl)sulfonyl)-3,4-dihydro-2H-benzo[b][1,4]oxazin-2-yl)propanoate] |  |
| < 500 | 500 to 5000 | CCn1cc(S(=O)(=O)N2C[C@H](CCC(=O)O)Oc3ccc(/C=C(\C)c4c(F)cccc4Cl)cc32)c(Cl)n1 [Example 86G, (S,E)-3-(4-((3-chloro-1-ethyl-1H-pyrazol-4-yl)sulfonyl)-6-(2-(2-chloro-6-fluorophenyl)prop-1-en-1-yl)-3,4-dihydro-2H-benzo[b][1,4]oxazin-2-yl)propanoic acid] |  |
| < 500 | 500 to 5000 | O=C(O)CC[C@H]1CN(S(=O)(=O)c2cccc(C(F)(F)F)c2)c2cc(/C=C/c3cccnc3Cl)ccc2O1 [Example 89CD, (S,E)-3-(6-(2-(2-chloropyridin-3-yl)vinyl)-4-((3-(trifluoromethyl)-phenyl)sulfonyl)-3,4-dihydro-2H-benzo[b][1,4]oxazin-2-yl)-propanoic acid] |  |
|  |  | COc1cc(S(=O)(=O)N2C[C@H](CCNC(=O)C(=O)O)Oc3ccc(/C=C(\C)c4c(F)cccc4Cl)cc32)ccc1F [Example 116K, (S,E)-2-((2-(6-(2-(2-chloro-6-fluorophenyl)prop-1-en-1-yl)-4-((4-fluoro-3-methoxyphenyl)sulfonyl)-3,4-dihydro-2H-benzo[b][1,4]-oxazin-2-yl)ethyl)amino)-2-oxoacetic acid] | EC50 (RORγ-LBD; RORγ-LBD TR-FRET assay): < 500 nM; TR-FRET Assay Max Response (RORγ-LBD; RORγ-LBD TR-FRET assay): *** (a value in the range of greater than 150 to 200); EC50 (Gal4-RORγ-LBD; [2]): 500 to 5000 nM; Gal4-RORγ Assay Max Response (Gal4-RORγ-LBD; [2]): ** (a value in the range of greater than 90 to 150) |
| < 500 | 500 to 5000 | COC(=O)CC[C@H]1CN(S(=O)(=O)c2cccc(OC(F)F)c2)c2cc(/C=C/c3c(F)cccc3C(F)(F)F)ccc2O1 [Example 89AJ, (S,E)-methyl 3-(4-((3-(difluoromethoxy)phenyl)sulfonyl)-6-(2-fluoro-6-(trifluoromethyl)-styryl)-3,4-dihydro-2H-benzo[b][1,4]oxazin-2-yl)propanoate] |  |
|  |  | COc1cc(S(=O)(=O)N2C[C@H](CNC(=O)C(=O)O)Oc3ccc(/C=C(\C)c4c(F)cccc4Cl)cc32)ccc1F [Example 135B, (S,E)-2-(((6-(2-(2-chloro-6-fluorophenyl)prop-1-en-1-yl)-4-((4-fluoro-3-methoxyphenyl)sulfonyl)-3,4-dihydro-2H-benzo[b][1,4]oxazin-2-yl)methyl)amino)-2-oxoacetic acid] | EC50 (RORγ-LBD; RORγ-LBD TR-FRET assay): < 500 nM; TR-FRET Assay Max Response (RORγ-LBD; RORγ-LBD TR-FRET assay): **** (a value greater than 200); EC50 (Gal4-RORγ-LBD; [2]): > 10000 nM |
| < 500 | 500 to 5000 | COC(=O)CC[C@H]1CN(S(=O)(=O)c2cc(C(F)(F)F)cnc2OCCCO)c2cc(/C=C/c3c(F)cccc3Cl)ccc2O1 [Example 89FD, methyl (S,E)-3-(6-(2-chloro-6-fluorostyryl)-4-((2-(3-hydroxypropoxy)-5-(trifluoromethyl)pyridin-3-yl)sulfonyl)-3,4-dihydro-2H-benzo[b][1,4]-oxazin-2-yl)propanoate] |  |
|  |  | O=S(=O)(c1cccc(C(F)(F)F)c1)N1C[C@H](CCO)Oc2ccc(COc3c(F)cccc3Cl)cc21 | EC50 (RORγ-LBD; [3]): < 500 nM; EC50 (Gal4-RORγ-LBD; [4]): 500 to 5000 nM |
| < 500 | 500 to 5000 | C/C(=C\c1ccc2c(c1F)N(S(=O)(=O)c1cccc(C(F)(F)F)c1)C[C@H](CCC(=O)O)O2)c1c(F)cccc1Cl [Example 62, (S,E)-3-(6-(2-(2-Chloro-6-fluorophenyl)prop-1-en-1-yl)-5-fluoro-4-((3-(trifluoromethyl)phenyl)sulfonyl)-3,4-dihydro-2H-benzo[b][1,4]oxazin-2-yl)propanoic acid] |  |
| < 500 | < 500 | O=C(O)CC[C@H]1CN(S(=O)(=O)c2cccc(OC(F)F)c2)c2cc(/C=C/c3c(Cl)cccc3Cl)ccc2O1 [Example 89CT, (S,E)-3-(6-(2,6-dichlorostyryl)-4-((3-(difluoromethoxy)phenyl)-sulfonyl)-3,4-dihydro-2H-benzo[b][1,4]oxazin-2-yl)propanoic acid] |  |
| < 500 | 500 to 5000 | CCOc1ncc(C(F)(F)F)cc1S(=O)(=O)N1C[C@H](CCC(=O)OC)Oc2ccc(/C=C/c3c(Cl)cccc3C(F)F)cc21 [Example 89EK, methyl (S,E)-3-(6-(2-chloro-6-(difluoromethyl)styryl)-4-((2-ethoxy-5-(trifluoromethyl)-pyridin-3-yl)sulfonyl)-3,4-dihydro-2H-benzo[b][1,4]-oxazin-2-yl)propanoate] |  |
| < 500 | 500 to 5000 | CCOc1ncc(C(F)(F)F)cc1S(=O)(=O)N1C[C@H](CCC(=O)O)Oc2ccc(/C=C(\C)c3c(F)cccc3Cl)cc21 [Example 34, (S,E)-3-(6-(2-(2-Chloro-6-fluorophenyl)prop-1-en-1-yl)-4-((2-ethoxy-5-(trifluoromethyl)pyridin-3-yl)sulfonyl)-3,4-dihydro-2H-benzo[b][1,4]oxazin-2-yl)propanoic acid] |  |
| < 500 | 500 to 5000 | COC(=O)CC[C@H]1CN(S(=O)(=O)c2cccc(C(F)(F)F)c2)c2cc(/C=C(\C)c3ccccc3C)ccc2O1 [Example 86AL, (S,E)-methyl 3-(6-(2-(o-tolyl)prop-1-en-1-yl)-4-((3-(trifluoromethyl)-phenyl)sulfonyl)-3,4-dihydro-2H-benzo[b][1,4]oxazin-2-yl)propanoate] |  |
|  |  | C/C(=C\c1ccc2c(c1)N(S(=O)(=O)c1cccc(C(F)(F)F)c1)C[C@H](CCC(=O)N1CCNCC1)O2)c1c(F)cccc1Cl [Example 127F, (S,E)-3-(6-(2-(2-chloro-6-fluorophenyl)prop-1-en-1-yl)-4-((3-(trifluoromethyl)phenyl)sulfonyl)-3,4-dihydro-2H-benzo[b][1,4]oxazin-2-yl)-1-(piperazin-1-yl)propan-1-one] | EC50 (RORγ-LBD; RORγ-LBD TR-FRET assay): < 500 nM; TR-FRET Assay Max Response (RORγ-LBD; RORγ-LBD TR-FRET assay): **** (a value greater than 200); EC50 (Gal4-RORγ-LBD; [2]): 500 to 5000 nM; Gal4-RORγ Assay Max Response (Gal4-RORγ-LBD; [2]): ** (a value in the range of greater than 90 to 150) |
| < 500 | 500 to 5000 | COC(=O)CC[C@H]1CN(S(=O)(=O)c2cccc(OC(F)F)c2)c2cc(/C=C/c3c(F)cccc3Cl)ccc2O1 [Example 89B, (S,E)-methyl 3-(6-(2-chloro-6-fluorostyryl)-4-((3-(difluoromethoxy)phenyl)sulfonyl)-3,4-dihydro-2H-benzo[b][1,4]oxazin-2-yl)propanoate] |  |
| < 500 | < 500 | COC(=O)CC[C@H]1CN(S(=O)(=O)c2cccc(C(F)(F)F)c2)c2cc(/C=C/c3c(Cl)cccc3C(C)(F)F)ccc2O1 [Example 89EW, methyl (S,E)-3-(6-(2-chloro-6-(1,1-difluoroethyl)styryl)-4-((3-(trifluoromethyl)phenyl)-sulfonyl)-3,4-dihydro-2H-benzo[b][1,4]oxazin-2-yl)propanoate] |  |
| < 500 | 500 to 5000 | N#Cc1cccnc1/C=C/c1ccc2c(c1)N(S(=O)(=O)c1cccc(C(F)(F)F)c1)C[C@H](CCC(=O)O)O2 [Example 89DL, (S,E)-3-(6-(2-(3-cyanopyridin-2-yl)vinyl)-4-((3-(trifluoromethyl)-phenyl)sulfonyl)-3,4-dihydro-2H-benzo[b][1,4]oxazin-2-yl)propanoic acid] |  |
| < 500 | 500 to 5000 | O=C(O)CC[C@H]1CN(S(=O)(=O)c2cccc(C(F)(F)F)c2)c2cc(C=C3CCC(O)CC3)ccc2O1 (stereo partly shown) [Example 94] |  |
|  |  | COc1cc(S(=O)(=O)N2c3cc(OCc4c(F)cccc4Cl)ccc3C=C(CNC(C)=O)[C@H]2C)ccc1F [Example 140, (R)—N-((7-((2-Chloro-6-fluorobenzyl)oxy)-1-((4-fluoro-3-methoxyphenyl)sulfonyl)-2-methyl-1,2-dihydroquinolin-3-yl)methyl)acetamide] | EC50 (RORγ-LBD; RORγ-LBD TR-FRET assay): < 500 nM; EC50 (Gal4-RORγ-LBD; [2]): < 500 nM |
| < 500 | 500 to 5000 | O=C(O)CC[C@H]1CN(S(=O)(=O)c2cccc(C(F)(F)F)c2)c2cc(C=C3CCOCC3)ccc2O1 [Example 95N, (S)-3-(6-((tetrahydro-4H-pyran-4-ylidene)methyl)-4-((3-(trifluoromethyl)phenyl)sulfonyl)-3,4-dihydro-2H-benzo[b][1,4]oxazin-2-yl)propanoic acid] |  |
| < 500 | 500 to 5000 | C/C(=C\c1ccc2c(c1)N(S(=O)(=O)c1ccc(F)c(Cl)c1)C[C@H](CCC(=O)O)O2)c1c(F)cccc1Cl [Example 86E, (S,E)-3-(4-((3-chloro-4-fluorophenyl)sulfonyl)-6-(2-(2-chloro-6-fluorophenyl)prop-1-en-1-yl)-3,4-dihydro-2H-benzo[b][1,4]oxazin-2-yl)propanoic acid] |  |
|  |  | COC(=O)CC[C@H]1CN(S(=O)(=O)c2cc(C3CC3)cnc2OCCO)c2cc(/C=C/c3c(F)cccc3Cl)ccc2O1 [Example 89FP, methyl (S,E)-3-(6-(2-chloro-6-fluorostyryl)-4-((5-cyclopropyl-2-(2-hydroxyethoxy)pyridin-3-yl)sulfonyl)-3,4-dihydro-2H-benzo[b][1,4]oxazin-2-yl)propanoate] | EC50 (RORγ-LBD; [3]): < 500 nM; EC50 (Gal4-RORγ-LBD; [4]): < 500 nM |
